According to ChEMBL document CHEMBL3621141, “Discovery of indole-based tetraarylimidazoles as potent inhibitors of urease with low antilipoxygenase activity” (Eur J Med Chem, 2015):

Experiments:
[1] = Inhibition of soybean LOX using linoleic acid as substrate preincubated for 10 mins followed by substrate addition measured after 6 mins by spectrophotometric analysis; design: species or system Glycine max
[2] = biological target: Urease (Canavalia ensiformis) (UniProt P07374); assay: Inhibition of jack beans urease assessed as hydrolysis of urea into ammonia at 0.5 mM preincubated for 10 mins followed by urea addition measured after 10 mins by Berthelot assay
Glycine max = assay: Inhibition of soybean LOX using linoleic acid as substrate at 0.5 mM preincubated for 10 mins followed by substrate addition measured after 6 mins by spectrophotometric analysis
Urease = Urease (Canavalia ensiformis, UniProt P07374); assay: Inhibition of jack beans urease assessed as hydrolysis of urea into ammonia preincubated for 10 mins followed by urea addition measured after 10 mins by Berthelot assay
Urease, sequence (P07374 whole entry): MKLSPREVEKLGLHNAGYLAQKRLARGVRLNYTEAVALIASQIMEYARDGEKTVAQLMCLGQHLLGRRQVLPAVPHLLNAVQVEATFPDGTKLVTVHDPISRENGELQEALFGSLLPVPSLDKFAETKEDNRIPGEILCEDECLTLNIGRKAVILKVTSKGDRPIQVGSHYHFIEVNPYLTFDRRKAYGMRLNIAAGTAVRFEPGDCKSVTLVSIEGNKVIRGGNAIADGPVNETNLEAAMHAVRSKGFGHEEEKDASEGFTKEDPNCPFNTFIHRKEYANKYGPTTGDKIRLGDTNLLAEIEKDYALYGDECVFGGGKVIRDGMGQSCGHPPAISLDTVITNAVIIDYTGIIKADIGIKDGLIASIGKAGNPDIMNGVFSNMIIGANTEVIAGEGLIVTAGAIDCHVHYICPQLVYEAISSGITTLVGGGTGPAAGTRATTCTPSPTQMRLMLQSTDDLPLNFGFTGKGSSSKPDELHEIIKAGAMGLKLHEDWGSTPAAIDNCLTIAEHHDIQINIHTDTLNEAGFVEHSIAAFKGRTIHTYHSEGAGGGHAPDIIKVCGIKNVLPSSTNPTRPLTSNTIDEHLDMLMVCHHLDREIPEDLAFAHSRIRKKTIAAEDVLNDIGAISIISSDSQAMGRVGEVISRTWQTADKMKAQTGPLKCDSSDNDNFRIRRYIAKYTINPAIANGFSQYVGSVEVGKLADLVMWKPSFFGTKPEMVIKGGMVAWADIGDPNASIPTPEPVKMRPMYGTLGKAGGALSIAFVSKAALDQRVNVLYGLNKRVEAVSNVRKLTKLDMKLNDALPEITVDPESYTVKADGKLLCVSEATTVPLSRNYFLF

Urease (Canavalia ensiformis), sequence (P07374 whole entry, looked up): as the sequence (P07374 whole entry) above

Clc1ccc(-n2c(-c3c(-c4ccccc4)[nH]c4ccc(Br)cc34)nc(-c3ccccc3)c2-c2ccccc2)cc1
IC50 [1]: 101 µM | inhibition [2]: 87.8% | inhibition (Glycine max): 83.2% | IC50 (Urease): 4.66 µM

Brc1ccc(-c2[nH]c3ccccc3c2-c2nc(-c3ccccc3)c(-c3ccccc3)n2-c2ccccc2)cc1
IC50 [1]: 197 µM | inhibition [2]: 89.4% | inhibition (Glycine max): 59.3% | IC50 (Urease): 4.81 µM

COc1ccc(-n2c(-c3c(-c4ccc(Br)cc4)[nH]c4ccccc34)nc(-c3ccccc3)c2-c2ccccc2)cc1
IC50 [1]: 206 µM | inhibition [2]: 85.2% | inhibition (Glycine max): 61.7% | IC50 (Urease): 29.1 µM

Brc1ccc(-c2[nH]c3ccccc3c2-c2nc(-c3ccccc3)c(-c3ccccc3)n2-c2ccc(Br)cc2)cc1
IC50 [1]: 173 µM | inhibition [2]: 87.8% | inhibition (Glycine max): 61.1% | IC50 (Urease): 11.3 µM

Fc1ccc(-n2c(-c3c(-c4ccc(C(F)(F)F)cc4)[nH]c4ccccc34)nc(-c3ccccc3)c2-c2ccccc2)cc1
IC50 [1]: 106 µM | inhibition [2]: 85.2% | inhibition (Glycine max): 80.2% | IC50 (Urease): 0.16 µM

Brc1ccc(-n2c(-c3c(-c4ccccc4)[nH]c4ccc(Br)cc34)nc(-c3ccccc3)c2-c2ccccc2)cc1
IC50 [1]: 178 µM | inhibition [2]: 93.2% | inhibition (Glycine max): 78.5% | IC50 (Urease): 0.15 µM

Cc1ccc(-n2c(-c3c(-c4ccccc4)[nH]c4ccc(Br)cc34)nc(-c3ccccc3)c2-c2ccccc2)cc1
IC50 [1]: 143 µM | inhibition (Glycine max): 81.4%

O=c1cc(-c2ccccc2)oc2cc(O)c(O)c(O)c12 [BAICALEIN]
IC50 [1]: 22.4 µM | inhibition (Glycine max): 93.7%

Fc1ccc(-n2c(-c3c(-c4ccc(Cl)cc4)[nH]c4ccccc34)nc(-c3ccccc3)c2-c2ccccc2)cc1
IC50 [1]: 89 µM | inhibition [2]: 85.6% | inhibition (Glycine max): 84.5% | IC50 (Urease): 0.44 µM

Cc1ccc(-n2c(-c3c(-c4ccc(C(F)(F)F)cc4)[nH]c4ccccc34)nc(-c3ccccc3)c2-c2ccccc2)cc1
IC50 [1]: 83 µM | inhibition [2]: 79.7% | inhibition (Glycine max): 90.3% | IC50 (Urease): 0.12 µM

FC(F)(F)c1ccc(-c2[nH]c3ccccc3c2-c2nc(-c3ccccc3)c(-c3ccccc3)n2-c2ccccc2)cc1
IC50 [1]: 117 µM | inhibition (Glycine max): 86.2%

Fc1ccc(-n2c(-c3c(-c4ccc(Br)cc4)[nH]c4ccccc34)nc(-c3ccccc3)c2-c2ccccc2)cc1
IC50 [1]: 162 µM | inhibition [2]: 86.7% | inhibition (Glycine max): 87.8% | IC50 (Urease): 12.1 µM

Clc1ccc(-c2[nH]c3ccccc3c2-c2nc(-c3ccccc3)c(-c3ccccc3)n2-c2ccccc2)cc1
IC50 [1]: 276 µM | inhibition [2]: 80.3% | inhibition (Glycine max): 58.3% | IC50 (Urease): 0.37 µM

Brc1ccc2[nH]c(-c3ccccc3)c(-c3nc(-c4ccccc4)c(-c4ccccc4)n3-c3ccccc3)c2c1
IC50 [1]: 134 µM | inhibition (Glycine max): 97.2%

FC(F)(F)c1ccc(-c2[nH]c3ccccc3c2-c2nc(-c3ccccc3)c(-c3ccccc3)n2-c2ccc(Cl)cc2)cc1
IC50 [1]: 215 µM | inhibition [2]: 70.3% | inhibition (Glycine max): 62.1% | IC50 (Urease): 4.75 µM

COc1ccc(-n2c(-c3c(-c4ccccc4)[nH]c4ccc(Br)cc34)nc(-c3ccccc3)c2-c2ccccc2)cc1
IC50 [1]: 265 µM | inhibition [2]: 88.7% | inhibition (Glycine max): 57.5% | IC50 (Urease): 4.62 µM
